In US20210015897A1, “METHODS TO PRODUCE PEPTIDES, POLYPEPTIDES OR CELLS FOR MODULATING IMMUNITY” (IMNATE SARL, priority 2017, published 2021):

Tests used:
CD4+ T cells = assay: Proliferation of AAV-specific CD4+ T cells on peptide-loaded dendritic cells (thymidine incorporation); type: cell-based, mice
From the text: The peptide of interest is then produced by chemical synthesis together with a potentiating motif made of a cysteine residue added to flanking regions on each side of the epitope (SEQ ID NO: 18).

[1] = test system: CD4+ T cells to the AAV capsid; assay: Functional assay of spleen CD4+ T cells after subcutaneous immunisation with peptide in alum; type: in vivo, mice; conditions: 4 subcutaneous administrations at fortnight intervals with alum; spleen 10 days after last immunization
AAV vector = assay: Immune response to IV AAV vector particles in peptide-immunized mice; type: in vivo; conditions: 10^9 AAV vector particles IV twice at an interval of 6 weeks
From the text: Mice immunized with peptide of SEQ ID NO: 18 are then used for direct IV administration of 10^9 AAV vector particles administered twice at an interval of 6 weeks.

[2] = test system: class II-restricted effector CD4+ T cells; assay: Peptide added to dendritic cells in cultures with class II-restricted effector CD4+ T cells; type: cell-based, human
Protocol: Naïve human CD4+ T cells are obtained from peripheral blood of subjects carrying either the DQ2 or DQ8 haplotype using microbeads coated with an anti-CD4+ antibody. Such cells are incubated with autologous dendritic cells derived from peripheral blood monocytes and loaded with peptide of sequence (SEQ ID NO: 19) so as to obtain effector CD4+ T cells.
In parallel experiments, a peptide of same sequence but containing a potentiating motif within flanking residues is used. Thus, a peptide of sequence (SEQ ID NO: 20) is produced, which contains in its flanking residues a sequence derived from an antibody to CD4, specific for the second extracellular domain of CD4.

How did the “specificity of CD4+ T cell activation by thymidine incorporation as a marker of proliferation” value (CD4+ T cells) turn out when “SEQ ID NO: 17: AAV VP1 capsid peptide encompassing an epitope activating CD4+ T cells (FNGLDKGEPVNEA; AAV)” was run?
Its value is “confirmed to be specific”.

Which results are given for “SEQ ID NO: 18: AAV VP1 epitope with a cysteine residue added to flanking regions on each side (HCFNGLDKGEPVNEACH; SEQ 17 + Cys and Cys)”?
activity of CD4+ T cells obtained by the immunisation schedule [1]: exert a regulatory activity; immune response towards the AAV vector (AAV vector): do not mount an immune response towards the AAV vector

How did the “apoptosis of antigen-presenting dendritic cell and bystander effector CD4+ T cells” value [2] turn out when “SEQ ID NO: 20: peptide of same sequence as SEQ ID NO: 19 with flanking sequence derived from an antibody to CD4 (QLQPFPQPQLPYPQRYD; SEQ I9 + CD4 motif)” was run?
The value was “induction of apoptosis”.

What about the “conversion of effector CD4+ T cells” value [2] of the same substance?
The value was “conversion of effector CD4+ T cells into cells with strong regulatory activity”.
